From patent publication EP4685152A1, “PEPTIDE BINDING TO LAG-3 AND USE THEREOF” (Kyungpook National University Industry-Academic Cooperation …, priority 2023, dated 2024)

What was measured:
LAG-3 [1] = molecular target: T1, LAG-3 (Homo sapiens, UniProt P18627); assay: Peptide binding to stimulated Jurkat T cells by flow cytometry; format: cell-based; conditions: FITC-labeled peptide 10 µM; Jurkat T cells stimulated with PMA, ionomycin, CQ compared to unstimulated control cells
T1 sequence (P18627 23-525): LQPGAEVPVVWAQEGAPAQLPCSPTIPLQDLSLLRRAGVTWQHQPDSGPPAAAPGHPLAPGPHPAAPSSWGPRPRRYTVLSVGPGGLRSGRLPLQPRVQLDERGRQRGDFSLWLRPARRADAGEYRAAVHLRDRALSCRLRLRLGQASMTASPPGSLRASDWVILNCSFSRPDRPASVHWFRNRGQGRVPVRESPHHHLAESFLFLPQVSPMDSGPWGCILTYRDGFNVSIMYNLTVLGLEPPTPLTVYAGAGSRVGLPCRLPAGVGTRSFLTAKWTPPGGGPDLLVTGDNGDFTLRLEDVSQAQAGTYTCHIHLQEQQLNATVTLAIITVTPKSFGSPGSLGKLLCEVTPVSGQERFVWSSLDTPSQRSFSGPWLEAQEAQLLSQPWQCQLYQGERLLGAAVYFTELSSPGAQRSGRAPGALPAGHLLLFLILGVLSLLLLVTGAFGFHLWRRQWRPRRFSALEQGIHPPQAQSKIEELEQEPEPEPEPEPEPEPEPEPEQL
Procedure: For flow cytometry, Jurkat T cells (1×10^6) stimulated with PMA (50 ng/ml), ionomycin (1 µg/ml), and CQ (100 µM) were harvested and suspended in culture medium containing 1% BSA for blocking at room temperature for 1 hour. Afterwards, the cells were further reacted with fluorescein isothiocyanate-labeled LAG-3 binding peptide (10 µM) at 4°C for 1 hour. After washing several times, 300 µl of cell suspension suspended in phosphate buffer was applied to Attune NxT flow cytometry (Thermo Fisher Scientific).
(§1) To determine the degree of binding of the peptide to LAG-3, a peptide labeled with a red fluorescent reagent was synthesized and treated in Hek-293T cells transfected with LAG-3 followed by observation under an immunofluorescence microscope. Non-transfected cells were used as a control group. Meanwhile, Jurkat T cells stimulated with PMA, ionomycin, and CQ to increase expression of LAG-3 were treated with the peptide, and binding was observed using a flow cytometer. Unstimulated Jurakt T cells were used as a control group.

LAG-3 [2] = molecular target: T1, LAG-3; assay: Competitive binding with LAG-3 blocking antibody, flow cytometry on stimulated Jurkat T cells; format: cell-based; conditions: LAG-3 blocking antibody 10 µg/ml first, then peptide 10 µM, compared to untreated control group
Procedure: Similarly, for flow cytometry, Jurkat T cells (1×10^6) stimulated with PMA (50 ng/ml), ionomycin (1 µg/ml), and CQ (100 µM) were harvested and suspended in culture medium containing 1% BSA for 1 hour at room temperature to block nonspecific binding. Afterwards, cells were blocked with human LAG-3 blocking antibody (10 µg/ml) at 4°C for 30 minutes and then reacted with fluorescein isothiocyanate-conjugated peptide at a concentration of 10 µM at 4°C for 1 hour. After washing several times, 300 µl of cell suspension suspended in phosphate buffer was applied to Attune NxT flow cytometry (Thermo Fisher Scientific).

LAG-3 [3] = molecular target: T1, LAG-3; assay: Peptide binding to LAG-3-transfected cells by immunofluorescence microscopy; format: cell-based; design: GFP; host or cells: HEK-293T; conditions: red fluorescent (TAMRA) peptide 25 µM; LAG-3-transfected Hek-293T cells compared to non-transfected control cells
Procedure: Hek-293T cells (1.25×10^5) were seeded in 4-well chamber slides, transfected with human LAG-3 plasmid, and […]. Non-transfected cells were used as a control group. The next day, cells were washed twice with phosphate buffer and reacted with 1% BSA at room temperature for 1 hour to reduce nonspecific binding of peptides. Afterwards, cells were reacted with TAMRA-conjugated peptide at a concentration of 25 µM at 4°C for 1 hour. After fixation, cells were washed, counterstained with DAPI, treated with an anti-fade reagent to preserve fluorescence, and analyzed using a confocal microscope (Nanoscope System).
as §1

LAG-3 [4] = molecular target: T1, LAG-3; assay: Competitive binding with LAG-3 blocking antibody, immunofluorescence microscopy on LAG-3-transfected cells; format: cell-based; design: GFP; host or cells: HEK-293T; conditions: LAG-3-transfected Hek-293T cells; LAG-3 blocking antibody 10 µg/ml first, then peptide 25 µM; compared to group without antibody
Procedure: Hek-293T cells (1.25×10^5) were seeded in 4-well chamber slides and transfected with human LAG-3 plasmid, and the next day, the cells were washed twice with phosphate buffer and reacted with 1% BSA at room temperature for 1 hour to reduce nonspecific binding. Afterwards, cells were blocked with human LAG-3 blocking antibody (10 µg/ml) at 4°C for 30 minutes, and then reacted with TAMRA-conjugated peptide at a concentration of 25 µM at 4°C for 1 hour. After fixation, cells were washed, counterstained with DAPI, treated with an anti-fade reagent to preserve fluorescence, and analyzed using a confocal microscope (Nanoscope System).

[5] = molecular target: T2, recombinant LAG-3 protein (Homo sapiens, UniProt P18627); assay: Pull-down with biotin-peptide and streptavidin beads, immunoblotting; recombinant protein; format: binding; conditions: biotin-labeled peptides, compared to the control group
T2 construct: purchased Acro Biosystems
T2 sequence (P18627 23-450 limits assumed): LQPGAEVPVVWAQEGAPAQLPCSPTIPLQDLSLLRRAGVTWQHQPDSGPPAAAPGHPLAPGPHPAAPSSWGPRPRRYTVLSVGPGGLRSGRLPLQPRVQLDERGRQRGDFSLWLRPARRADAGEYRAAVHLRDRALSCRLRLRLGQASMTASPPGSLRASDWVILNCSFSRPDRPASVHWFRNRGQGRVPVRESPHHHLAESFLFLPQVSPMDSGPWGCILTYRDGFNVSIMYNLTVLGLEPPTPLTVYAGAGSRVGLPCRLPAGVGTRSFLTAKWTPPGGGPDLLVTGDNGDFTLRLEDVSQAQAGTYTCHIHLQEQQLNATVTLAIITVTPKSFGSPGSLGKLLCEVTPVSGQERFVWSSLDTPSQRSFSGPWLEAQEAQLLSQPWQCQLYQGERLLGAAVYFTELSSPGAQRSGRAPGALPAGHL
Procedure: (§2) The binding specificity of the LAG-3 binding peptide was measured by pull-down analysis. After pull-down with LAG-3 binding peptide using human recombinant LAG-3 protein, it was applied to immunoblotting using LAG-3 antibody. In the same manner, cell lysates with LAG-3 overexpressed were […] using human LAG-3 plasmid DNA and then subjected to immunoblotting using LAG-3 antibodies.

[6] = molecular target: T3, cell lysate overexpressing LAG-3 (Homo sapiens, UniProt P18627); assay: Pull-down with biotin-peptide and streptavidin beads, immunoblotting; cell lysate; format: binding; conditions: cell lysate overexpressing LAG-3, biotin-labeled peptides; compared to the control group
T3 construct: GFP; host or cells: HEK-293T
T3 sequence (P18627 23-525): T1 sequence (P18627 23-525)
Procedure: as §2

Jurkat T cells = assay: T-cell activation assay (IL-2 ELISA); format: cell-based, human; conditions: stimulated Jurkat T cells under co-culture of HepG2 cells, HepG2 cell culture medium, or recombinant FGL-1 (10 µg/ml); peptide 50 µM, antibody 10 µg/ml; 24 hours
Procedure: Jurkat T cells (1×10^6) were inoculated into a T25 flask and stimulated for 24 hours using PMA (50 ng/ml), ionomycin (1 µg/ml), and CQ (100 µM). HepG2 cells (5×10^3) were inoculated in a 96-well plate to induce secretion of FGL-1 for 48 hours. To co-culture the two types of cells, stimulated Jurkat T cells (2.5×10^4) were mixed with HepG2 at a ratio of 1:5. Similarly, for indirect co-culture, stimulated Jurkat T cells (2.5×10^4) were mixed with HepG2 cell culture medium. Finally, to observe the direct effect, stimulated Jurkat T cells (2.5×10^4) were treated with recombinant FGL-1 (10 µg/ml) protein. […] Afterwards, culture was carried out for an additional 24 hours for reaction. Control peptides were also used for comparison. After each culture time, the supernatant was harvested, and IL-2 secretion was measured using an ELISA kit for measuring human IL-2.
Investigation was made on whether the interaction between FGL-1 secreted from HepG2 hepatoma cells and LAG-3 of T cells inhibits T cell activity and, if so, whether it is blocked by a LAG-3 binding peptide. For this purpose, in the first experiment, Jurkat T cells were cultured with stimulation for 24 hours using PMA, ionomycin, and CQ. HepG2 cells were cultured in 96-well plates for 48 hours for FGL-1 secretion. […]

[7] = system: MC38 mouse colon cancer cells; assay: In-vivo antitumor therapy, syngeneic MC38 mouse tumor model; design: species or system C57BL/6 mice; conditions: compared to control group and phosphate buffer group; 10 mg/kg; peptide intravenously 6 times, antibody intraperitoneally 3 times
Procedure: 6-8-week-old C57BL/6 mice were purchased. Mice were bred and kept under the guidelines of the Institutional Animal Care and Use Committee (IACUC) of Kyungpook National University (2023-0184). Tumors were injected into the lower right flank of mice. For in-vivo antitumor treatment, mice were randomly selected and grouped when tumor size reached approximately 100-150 mm^3. Thereafter, the peptide was injected intravenously three times a week for two weeks at a dose of 10 mg/kg, and similarly the antibody was injected intraperitoneally three times at the same dose. Tumor size was measured using a digital caliper, and tumor volume was calculated using the formula (V = length × width^2 × 0.52) (where length (L) is the longest dimension, and width (W) is the shortest dimension, parallel to the mouse body). All mice were checked for ulcer severity after treatment, treatment was terminated when the tumor size reached approximately 3000 mm^3, and the mice were sacrificed.
To identify the anticancer effect in a syngeneic mouse tumor model, LAG-3 binding peptide was administered alone or in combination with PD-L1 antibody to mice in which tumors were induced using MC38 mouse colon cancer cells (FIG. 9a). […]

LAG-3 [8] = molecular target: T1, LAG-3; assay: Phage binding ELISA on LAG-3-transfected or non-transfected cells; format: cell-based; design: GFP; host or cells: HEK-293T; conditions: phage clone 3 among 13 selected phage clones; transfected or non-transfected Hek-293T cells; OD 450 nm
Procedure: Hek-293T cells (2.5×10^4) were seeded in a 96-well plate and transfected with LAG-3 plasmid. Culture was performed for 48 hours. Non-transfected Hek-293T cells were used as a control group. Plates were blocked with 10 mg/ml BSA for 1 hour at room temperature. After washing the wells six times with Tris-buffered saline-Tween 20 (0.1%), 100 µl of phage clones (1×10^9 pfu/well) were added and reacted at 4°C for 1 hour. After washing, horse-radish peroxidase (HRP)-conjugated T7 tail fiber antibody (diluted 1:10,000 in blocking buffer) was added and reacted at room temperature for 1 hour. After washing the plate six more times, a substrate consisting of 3,3',5,5'-tetramethylbenzidine was added and reacted at room temperature for 10-15 minutes. The reaction was finally stopped by adding 100 µl of 2 M H2SO4 (stop solution), and the plates were analyzed at 450 nm with a microplate reader.

Row | Structure (SMILES) | binding of peptide to stimulated Jurkat T cells (LAG-3 [1]) | binding of peptide after LAG-3 blocking antibody (LAG-3 [2]) | binding of peptide to LAG-3 expressing cells (LAG-3 [3]) | binding strength of peptide after LAG-3 blocking antibody (LAG-3 [4]) | detection of LAG-3 protein after pull-down [5] | detection of LAG-3 proteins after pull-down [6] | IL-2 secretion (Jurkat T cells) | cancer growth, single administration [7] | cell binding by phage binding ELISA (LAG-3 [8])
1 | CC[C@H](C)[C@@H]1NC(=O)[C@@H](N)CSSC[C@@H](C(=O)O)NC(=O)[C@H](C(C)C)NC(=O)[C@H](C)NC(=O)[C@@H]2CCCN2C(=O)[C@H](CC(=O)O)NC(=O)[C@H](CC(N)=O)NC(=O)[C@H](CCCNC(=N)N)NC1=O [LAG3Pep-1] | more LAG-3Pep-1 and LAG-3Pep-2 peptides were bound | reduced | bind more strongly | reduced | – | – | – | – | –
2 | CC(C)C[C@H](NC(=O)[C@@H](NC(=O)[C@H](CO)NC(=O)[C@@H](N)CS)C(C)C)C(=O)N[C@@H](CC(N)=O)C(=O)N[C@@H](C)C(=O)N[C@@H](CO)C(=O)NCC(=O)N[C@@H](CS)C(=O)O [LAG3Pep-2] | more LAG-3Pep-1 and LAG-3Pep-2 peptides were bound | reduced | bind more strongly | reduced | more detection of LAG-3 protein | more LAG-3 proteins were detected | significantly increased | partially inhibited | highest level of binding
